Source: ChEMBL document CHEMBL1201862, “PubChem BioAssay data set” (2004)
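Step 1: Grow cells in 96-well plates. Step 2: Expose to compound for 48 hours at 5 concentrations. Step 3: Interpolate endpoints linearly; if unreached, use highest concentration. GI50 marks 50% less growth.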 The source made the active and inactive calls. Cut-off read from the data, not from the text of the source: active = GI50 up to about 1.1 µM and inactive = higher.

Assays:
Experiment in all cases: NCI anticancer screen, dose series, 48 h
NCI/ADR-RES = tested on: NCI/ADR-RES
SF-539 = tested on: SF-539
UACC-62 = tested on: UACC-62
SK-MEL-2 = tested on: SK-MEL-2
OVCAR-4 = tested on: OVCAR-4
MDA-MB-435 = tested on: MDA-MB-435
OVCAR-3 = tested on: OVCAR-3
CCRF-CEM = tested on: CCRF-CEM
SW-620 = tested on: SW-620
CAKI-1 = tested on: CAKI-1
PC-3 = tested on: PC-3
Hs-578T = tested on: Hs-578T
RPMI-8226 = tested on: RPMI-8226
HOP-62 = tested on: HOP-62
ACHN = tested on: ACHN
MDA-N = tested on: MDA-N
786-0 = tested on: 786-0
COLO 205 = tested on: COLO 205
SK-OV-3 = tested on: SK-OV-3
T47D = tested on: T47D

Measured: GI50

Cc1cc(=O)oc2c(OS(C)(=O)=O)c(OS(C)(=O)=O)ccc12
inactive: NCI/ADR-RES > 100 µM | SF-539 > 100 µM | UACC-62 > 100 µM | SK-MEL-2 > 100 µM | OVCAR-4 > 100 µM | MDA-MB-435 > 100 µM | OVCAR-3 > 100 µM | CCRF-CEM > 100 µM | SW-620 > 100 µM | CAKI-1 > 100 µM | PC-3 > 100 µM | Hs-578T > 100 µM | RPMI-8226 > 100 µM | HOP-62 > 100 µM | ACHN > 100 µM | MDA-N > 100 µM | 786-0 > 100 µM | COLO 205 > 100 µM

Oc1ccc(Cc2cc(Cc3ccc(O)cc3)cc(Cc3ccc(O)cc3)c2)cc1
inactive: NCI/ADR-RES > 50 µM | SF-539 > 50 µM | UACC-62 > 50 µM | SK-MEL-2 > 50 µM | OVCAR-4 > 50 µM | MDA-MB-435 > 50 µM | OVCAR-3 > 50 µM | SW-620 > 50 µM | SK-OV-3 > 50 µM | PC-3 > 50 µM | Hs-578T > 50 µM | RPMI-8226 > 50 µM | HOP-62 > 50 µM | ACHN > 50 µM | MDA-N > 50 µM | 786-0 > 50 µM

Cc1c(/C=N/NC(=S)N2CCCCC2)c(=O)n(-c2ccccc2)n1C
inactive: NCI/ADR-RES 28.9 µM | SF-539 > 100 µM | UACC-62 > 100 µM | MDA-MB-435 > 100 µM | OVCAR-3 48.4 µM | CCRF-CEM 23.2 µM | SW-620 74.1 µM | CAKI-1 77.1 µM | SK-OV-3 68.1 µM | PC-3 > 100 µM | Hs-578T 39.3 µM | RPMI-8226 67.5 µM | HOP-62 88.9 µM | ACHN 32.4 µM | MDA-N > 100 µM | 786-0 73.5 µM | COLO 205 29.9 µM

O=C(O)CN1CCN(CC(=O)N2CCN(C(=O)OCc3ccccc3)CC2)CCN(CC(=O)O)CCN(CC(=O)N2CCN(C(=O)OCc3ccccc3)CC2)CC1
inactive: NCI/ADR-RES > 100 µM | SF-539 > 100 µM | UACC-62 > 100 µM | SK-MEL-2 > 100 µM | OVCAR-4 > 100 µM | MDA-MB-435 > 100 µM | OVCAR-3 > 100 µM | CCRF-CEM > 100 µM | SW-620 > 100 µM | CAKI-1 > 100 µM | SK-OV-3 > 100 µM | PC-3 > 100 µM | Hs-578T > 100 µM | RPMI-8226 > 100 µM | HOP-62 > 100 µM | T47D > 100 µM | ACHN > 100 µM | 786-0 > 100 µM | COLO 205 > 100 µM

N#Cc1c(Cl)c(C=O)c(=O)n2c1[nH]c1ccccc12
inactive: NCI/ADR-RES 28.3 µM | SF-539 35.9 µM | UACC-62 55.6 µM | OVCAR-4 84.5 µM | MDA-MB-435 33.7 µM | OVCAR-3 20.1 µM | CCRF-CEM 40.4 µM | SW-620 77.4 µM | CAKI-1 40.3 µM | SK-OV-3 > 100 µM | PC-3 55.1 µM | Hs-578T 45.1 µM | RPMI-8226 > 100 µM | HOP-62 39 µM | ACHN 84.3 µM | MDA-N 43.7 µM | 786-0 55.7 µM | COLO 205 59.7 µM

NC(Cc1ccc(OCc2ccccc2)cn1)C(=O)OCc1ccccc1 (centres undefined)
inactive: NCI/ADR-RES > 100 µM | SF-539 > 100 µM | OVCAR-4 > 100 µM | MDA-MB-435 > 100 µM | OVCAR-3 > 100 µM | CCRF-CEM > 100 µM | SW-620 > 100 µM | CAKI-1 > 100 µM | PC-3 > 100 µM | Hs-578T > 100 µM | RPMI-8226 > 100 µM | HOP-62 > 100 µM | ACHN > 100 µM | MDA-N > 100 µM | 786-0 > 100 µM | COLO 205 > 100 µM
